Test results: patent US12286437B2, “Cardiac sarcomere inhibitors” (Cytokinetics, Inc., priority 2021, dated 2025)

Tests used:
CYP2C19 = target: T1, CYP2C19 (Homo sapiens, UniProt P33261); experiment: Time-dependent inhibition of CYP2C19 in human liver microsomes; format: in vitro ADME; conditions: for (% Activity NADPH T0)/(% Activity NADPH T30): fold change; for activity at 30 min, 25 µM / activity at 0 min, 25 µM / activity at 30 min, 50 µM / activity at 0 min, 50 µM: pooled human liver microsomes, human liver microsomes; for activity at 30 min, 25 µM / activity at 30 min, 50 µM: after 30 minutes incubation, read-out: % Activity NADPH T30; for activity at 0 min, 25 µM / activity at 0 min, 50 µM: time zero, read-out: % Activity NADPH T0
T1 construct: Pooled human microsomes and selective CYP probe substrates were used; from tissue; host or cells: pooled human liver microsomes
Protocol: (§1) An assessment of the time-dependent Inhibitory Potential of the test compounds against Principal Human Cytochrome P450 Isozymes using Human Liver Microsomes was also carried out using standard methods (Grimm et al, Drug Metab. Dispos., July; 37(7):1355-70. doi: 10.1124/dmd.109.026716, 2009). Pooled human microsomes and selective CYP probe substrates were used for in vitro assessment of test compounds at 25 and 50 μM as time-dependent inhibitors of […] human hepatic cytochrome P450 isozymes (CYP1A2, 2B6, 2C9, 2C19, 2D6, and 3A4). LC-MS/MS was used to quantify metabolite formation. The inhibition of each P450 enzyme in human liver microsomes was measured as the percentage decrease in the activity of marker metabolite formation as measured by LC-MS/MS compared to non-inhibited controls (=100% activity) at time zero and after 30 minutes incubation. The occurrence of any time dependent inhibition was then expressed as the fold change in enzyme activity at time zero relative to the activity after 30 minutes incubation.

[1] = tested on: bovine cardiac myofibrils; experiment: Myofibril assay (ATPase activity of skinned bovine cardiac myofibrils, PK/LDH-coupled); format: biochemical; conditions: inhibition of steady-state ATPase of bovine cardiac myofibrils; CaCl2 for 50% or 75% activation
Protocol: To evaluate the effect of compounds on the ATPase activity of full-length cardiac myosin in the context of the native sarcomere, skinned myofibril assays were performed. Bovine cardiac myofibrils were obtained by homogenizing bovine cardiac left ventricular tissue in the presence of a detergent such as triton X-100. Such treatment removes membranes and a majority of the soluble cytoplasmic proteins but leaves intact the cardiac sarcomeric acto-myosin apparatus. Myofibril preparations retain the ability to hydrolyze ATP in a Ca^2+ regulated manner. ATPase activities of such myofibril preparations in the presence and absence of compounds were assayed at Ca^2+ concentrations activating to a defined fraction of the maximal rate (i.e., […], 75%). Small molecule agents were assessed for their ability to inhibit the steady-state ATPase activity of bovine cardiac myofibrils using pyruvate kinase and lactate dehydrogenase (PK/LDH)-coupled enzyme system. This assay regenerates myosin-produced ADP into ATP by oxidizing NADH, producing an absorbance change at 340 nm. Prior to testing small molecule agents, the bovine cardiac myofibrils were assessed for their calcium responsiveness and the calcium concentration that achieves either a 50% (pCa50) or 75% (pCa75) activation of the myofibril system was chosen as the final condition for assessing the inhibitory activity of the small molecule agents. All enzymatic activity was measured in a buffered solution containing 12 mM PIPES (piperazine-N,N′-bis(2-ethanesulfonic acid), 2 mM magnesium chloride at pH 6.8 (PM 12 buffer). Final assay conditions were 1 mg/mL of bovine cardiac myofibrils, 4 U/mL pyruvate kinase, 6 U/mL lactate dehydrogenase, 50 μM ATP, 0.1 mg/mL BSA (bovine serum albumin), 10 ppm antifoam, 1 mM DTT, 0.5 mM NADH, 1.5 mM PEP, 0.6 mM EGTA, and an amount of CaCl2 sufficient to achieve either 50% or 75% activation of the myofibril ATPase activity. Results for compounds tested are provided in Table A. Compounds tested were prepared in accordance with the synthetic procedures described herein.

CYP1A2 = target: T2, CYP1A2 (Homo sapiens, UniProt P05177); experiment: Time-dependent inhibition of CYP1A2 in human liver microsomes; format: in vitro ADME; conditions: for (% Activity NADPH T0)/(% Activity NADPH T30): fold change; for activity at 30 min, 25 µM / activity at 0 min, 25 µM / activity at 30 min, 50 µM / activity at 0 min, 50 µM: pooled human liver microsomes, human liver microsomes; for activity at 30 min, 25 µM / activity at 30 min, 50 µM: after 30 minutes incubation, read-out: % Activity NADPH T30; for activity at 0 min, 25 µM / activity at 0 min, 50 µM: time zero, read-out: % Activity NADPH T0
T2 construct: Pooled human microsomes and selective CYP probe substrates were used; from tissue; host or cells: pooled human liver microsomes
T2 sequence (P05177 1-516): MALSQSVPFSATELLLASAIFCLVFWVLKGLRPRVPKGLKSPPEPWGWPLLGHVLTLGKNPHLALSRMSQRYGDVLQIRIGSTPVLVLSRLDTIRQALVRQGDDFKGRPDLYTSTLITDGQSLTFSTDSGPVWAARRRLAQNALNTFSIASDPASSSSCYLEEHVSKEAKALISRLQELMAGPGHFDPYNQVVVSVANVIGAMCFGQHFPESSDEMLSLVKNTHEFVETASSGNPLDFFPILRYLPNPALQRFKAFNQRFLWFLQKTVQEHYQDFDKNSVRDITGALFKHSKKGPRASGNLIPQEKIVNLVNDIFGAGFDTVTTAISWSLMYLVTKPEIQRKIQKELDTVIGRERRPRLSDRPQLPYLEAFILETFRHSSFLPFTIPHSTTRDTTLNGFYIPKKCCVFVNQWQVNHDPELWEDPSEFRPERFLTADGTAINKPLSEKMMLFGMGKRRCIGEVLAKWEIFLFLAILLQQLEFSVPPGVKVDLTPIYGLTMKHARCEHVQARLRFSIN
Protocol: as §1

T1 sequence (P33261 whole entry): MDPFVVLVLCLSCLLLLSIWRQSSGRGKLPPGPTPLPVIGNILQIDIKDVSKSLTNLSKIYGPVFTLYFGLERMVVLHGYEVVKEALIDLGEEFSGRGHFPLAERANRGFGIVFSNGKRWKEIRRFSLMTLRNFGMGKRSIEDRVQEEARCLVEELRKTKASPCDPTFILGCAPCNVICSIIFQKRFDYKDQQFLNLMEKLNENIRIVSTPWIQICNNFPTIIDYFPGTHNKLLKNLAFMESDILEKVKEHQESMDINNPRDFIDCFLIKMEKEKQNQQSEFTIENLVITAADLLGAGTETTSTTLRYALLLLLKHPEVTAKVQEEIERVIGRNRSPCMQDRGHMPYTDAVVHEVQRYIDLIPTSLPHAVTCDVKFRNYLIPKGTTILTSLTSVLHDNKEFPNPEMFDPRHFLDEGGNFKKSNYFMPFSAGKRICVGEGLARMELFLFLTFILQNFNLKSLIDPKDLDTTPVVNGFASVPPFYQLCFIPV

SMILES	(% Activity NADPH T0)/(% Activity NADPH T30) (CYP2C19; CYP2C19, 25 μM)	(% Activity NADPH T0)/(% Activity NADPH T30) (CYP2C19; CYP2C19, 50 μM)	activity at 30 min, 25 µM (CYP2C19; CYP2C19, 25 μM) [%]	activity at 0 min, 25 µM (CYP2C19; CYP2C19, 25 μM) [%]	activity at 30 min, 50 µM (CYP2C19; CYP2C19, 50 μM) [%]	activity at 0 min, 50 µM (CYP2C19; CYP2C19, 50 μM) [%]	CDMF IC15 [1] [nM]	(% Activity NADPH T0)/(% Activity NADPH T30) (CYP1A2; CYP1A2, 25 μM)	(% Activity NADPH T0)/(% Activity NADPH T30) (CYP1A2; CYP1A2, 50 μM)	activity at 30 min, 25 µM (CYP1A2; CYP1A2, 25 μM) [%]	activity at 0 min, 25 µM (CYP1A2; CYP1A2, 25 μM) [%]	activity at 30 min, 50 µM (CYP1A2; CYP1A2, 50 μM) [%]	activity at 0 min, 50 µM (CYP1A2; CYP1A2, 50 μM) [%]	(% Activity NADPH T0)/(% Activity NADPH T30) (CYP2C19; CYP2C19, 50 μM, listed as compound 4)
CC(C)N1CC(=O)N(Cc2ccc(Cl)c(F)c2)C2(CN(c3cccnn3)C2)C1=O [Compound 8, 5-(4-chloro-3-fluorobenzyl)-8-isopropyl-2-(pyridazin-3-yl)-2,5,8-triazaspiro[3.5]nonane-6,9-dione]	0.9	1.0	99	94	92	93	1300	0.9	0.9	96	82	101	86	–
Cc1cc(CN2C(=O)CN([C@H]3CC[C@H](C)CC3)C(=O)C23CN(C(N)=O)C3)ccc1F [Compound 6, 5-(4-fluoro-3-methylbenzyl)-8-((1r,4r)-4-methylcyclohexyl)-6,9-dioxo-2,5,8-triazaspiro[3.5]nonane-2-carboxamide]	1.2	1.1	89	105	92	100	1400	1.1	1.0	85	97	99	95	–
C[C@H]1CC[C@H](N2CC(=O)N(Cc3ccc(F)c(F)c3)C3(CN(C=O)C3)C2=O)CC1 [Compound 4, 5-(3,4-difluorobenzyl)-8-((1r,4r)-4-methylcyclohexyl)-6,9-dioxo-2,5,8-triazaspiro[3.5]nonane-2-carbaldehyde]	1.4	1.1	–	–	–	–	1500	1.1	1.0	–	–	–	–	no change in activity
C[C@H]1CC[C@H](N2CC(=O)N(Cc3ccc(F)c(F)c3)C3(CN(C(N)=O)C3)C2=O)CC1 [Compound 5, 5-(3,4-difluorobenzyl)-8-((1r,4r)-4-methylcyclohexyl)-6,9-dioxo-2,5,8-triazaspiro[3.5]nonane-2-carboxamide]	1.2	1.3	83	101	77	102	1300	1.0	1.1	87	89	88	99	–
